The values that follow come from ChEMBL document CHEMBL3091307, “Structure-anti-MRSA activity relationship of macrocyclic bis(bibenzyl) derivatives” (2013).

Experiment [1] has as its system Staphylococcus aureus. Kind of experiment: Antibacterial activity against methicillin-resistant Staphylococcus aureus clinical isolate OM584 by liquid microdilution method. It is filed as functional.
For experiment [2], the system named is Staphylococcus aureus. The experiment is described as follows: Antibacterial activity against methicillin-resistant Staphylococcus aureus clinical isolate N315 by liquid microdilution method. It is filed as functional. A general note: Broth dilution looks for growth in wells or tubes with falling amounts of substance.
The subject of experiment [3] is Staphylococcus aureus. The experiment is described as follows: Antibacterial activity against methicillin-resistant Staphylococcus aureus clinical isolate OM481 by liquid microdilution method. It is filed as functional.
Experiment [4] concerns Staphylococcus aureus. Kind of experiment: Antibacterial activity against 2-phenoxyphenol and trichlosan-resistant Staphylococcus aureus clinical isolate N315 by liquid microdilution method. It is filed as functional.
The test system of experiment [5] is Staphylococcus aureus. Kind of experiment: Bacteriostatic activity against methicillin-resistant Staphylococcus aureus at 4 times MIC by cell survival assay. The experiment is classed as functional, organism-based.
In experiment [6] the test system is Staphylococcus aureus. The experiment is described as follows: Bactericidal activity against methicillin-resistant Staphylococcus aureus at 4 times MIC by cell survival assay. The experiment is classed as functional, organism-based.
Experiment [7] deals with Staphylococcus aureus. Kind of experiment: Antibacterial activity against methicillin-resistant Staphylococcus aureus at 4 times MIC by cell survival assay. It is filed as functional, organism-based.

SMILES strings stand for the structures. Converted amounts (≈) assume the structure as drawn. The source made the active and inactive calls.

The MIC is the smallest concentration in the dilution series that meets the test's criterion for growth inhibition. A higher MIC goes with a less susceptible organism. Turning to `Oc1ccc2cc1Oc1ccc(cc1)CCc1ccc(O)c(c1)Oc1ccc(cc1)CC2`, the MIC in the experiment on Staphylococcus aureus [1], against Staphylococcus aureus [2] and in the experiment on Staphylococcus aureus [3] was over 100 µg/mL throughout.
Take `Oc1ccc2c(c1)CCc1ccc(cc1)Oc1cccc(c1)CCc1ccc-2c(O)c1`: the MIC against Staphylococcus aureus [1], in the experiment on Staphylococcus aureus [2], with Staphylococcus aureus [3] and with Staphylococcus aureus [4] was 1 µg/mL (≈ 2.45 µM) in each case.
Consider `Oc1ccc2c(c1)CCc1ccc(cc1O)Oc1cccc(c1)CCc1ccc-2c(O)c1`, for which the MIC with Staphylococcus aureus [1], in the experiment with Staphylococcus aureus [2] and with Staphylococcus aureus [3] was 4 µg/mL (≈ 9.42 µM) each time.
Consider `Oc1ccc2c(c1)CCc1ccc(c(O)c1)-c1ccc(O)c(c1)CCc1ccc-2c(O)c1`, for which the MIC with Staphylococcus aureus [1], in the experiment on Staphylococcus aureus [2] and against Staphylococcus aureus [3] was 32 µg/mL (≈ 75.4 µM) throughout.
As for `Oc1ccc2cc1Oc1ccc(cc1)CCc1ccccc1-c1ccc(cc1O)CC2`, the MIC with Staphylococcus aureus [1], against Staphylococcus aureus [2], with Staphylococcus aureus [3] and against Staphylococcus aureus [4] was 1 µg/mL (≈ 2.45 µM) each time.
In the case of `Oc1ccc2c(c1)CCc1ccc(cc1O)Oc1cc(ccc1O)CCc1ccc-2c(O)c1`, the MIC against Staphylococcus aureus [1], with Staphylococcus aureus [2] and with Staphylococcus aureus [3] was 8 µg/mL (≈ 18.2 µM) in each case.
Take `Oc1ccccc1Oc1ccccc1`: the MIC with Staphylococcus aureus [1], against Staphylococcus aureus [2] and in the experiment on Staphylococcus aureus [3] was 8 µg/mL (≈ 43 µM) each time. Also, in the experiment on Staphylococcus aureus [5], the result was Active. The outcome with Staphylococcus aureus [6] was inactive.
For the compound `Oc1ccc2c(c1)CCc1ccc(c(O)c1)Oc1cc(ccc1O)CCc1ccc-2c(O)c1`, the minimal inhibitory concentration (MIC) against Staphylococcus aureus [1] came to 16 µg/mL (≈ 36.3 µM); in the experiment on Staphylococcus aureus [2] it was 8 µg/mL (≈ 18.2 µM); against Staphylococcus aureus [3] it was 16 µg/mL (≈ 36.3 µM).
As for `Oc1ccc2c(c1)CCc1ccc(c(F)c1)Oc1cc(ccc1O)CCc1ccc-2c(O)c1`, the MIC came out at 8 µg/mL (≈ 18.1 µM) in the experiment on Staphylococcus aureus [1], 4 µg/mL (≈ 9.04 µM) in the experiment on Staphylococcus aureus [2] and 8 µg/mL (≈ 18.1 µM) against Staphylococcus aureus [3].
`Oc1ccc2c(c1)CCc1ccc(cc1)Oc1cc(ccc1O)CCc1ccc-2c(O)c1` [RICCARDI C]: the MIC in the experiment with Staphylococcus aureus [1], with Staphylococcus aureus [2], with Staphylococcus aureus [3] and in the experiment with Staphylococcus aureus [4] was 2 µg/mL (≈ 4.71 µM) in each case. In addition, the outcome in the experiment on Staphylococcus aureus [7] was Active.
For the compound `Oc1ccc2c(c1)CCc1ccc(O)c(c1)Oc1ccc(cc1)CCc1ccc-2c(O)c1`, the MIC against Staphylococcus aureus [1], in the experiment on Staphylococcus aureus [2] and against Staphylococcus aureus [3] was 4 µg/mL (≈ 9.42 µM) each time.
With `Oc1ccc2c(c1)CCc1ccc(cc1)Oc1cc(ccc1F)CCc1ccc-2c(O)c1`, the results for the MIC against Staphylococcus aureus [1], in the experiment on Staphylococcus aureus [2] and against Staphylococcus aureus [3] were 2 µg/mL (≈ 4.69 µM), 1 µg/mL (≈ 2.34 µM) and 1 µg/mL (≈ 2.34 µM), respectively.
With `CC(=O)NC[C@H]1CN(c2ccc(N3CCOCC3)c(F)c2)C(=O)O1` [LINEZOLID], the MIC against Staphylococcus aureus [1] and in the experiment on Staphylococcus aureus [3] was 1 µg/mL (≈ 2.96 µM) each time.
